# Laboratory results from patent US12648941B2, “Piperidine urea derivatives for use as inotropic agents” (Helsinn Healthcare SA, priority 2021, dated 2026).
# “Also recorded” adds a separate entry of the source.
# What was measured:
# [1] = test system: cardiomyocytes isolated from hearts of heart failure (HF) mice; experiment: Cardiomyocyte contractility (fractional shortening, % FS), heart failure (MI) cardiomyocytes; format: cell-based, mouse; conditions: 1 μM
# Method: Cardiomyocytes were isolated freshly from cardiac ventricles separately from SHAM and HF mice following the protocol developed by the Alliance for Cellular Signalling (AfCS Procedure Protocol ID PP00000125). From each of the 5 SHAM and 3 HF hearts a cell suspension was made and divided into 10 aliquots each, for a total of 50 aliquots from SHAM and 30 aliquots from HF hearts. These aliquots were treated with vehicle, AC01/HM01 or D-Lys3-GHPR-6+AC01/HM01 as stated and used for the subsequent physiological and biochemical experiments.
# AC01/HM01 was suspended in phosphate buffer saline solution (PBS: in mM: NaCl 137, KCl 7, Na2HPO4 10, KH2PO4 […]) and diluted to obtain 3 different concentrations: 0.2, 0.5 or 1 μM in Tyrode solution. We used a concentration range within 0.2-1 μM to ensure that the receptor was activated. […]
# Line scan fluorescence images were acquired using a confocal microscope (Biorad; 40× oil immersion lenses). […] ImageJ software (open source software developed by NIH, Bethesda, USA) was used to quantify changes in fluorescence (Ca^2+ transients) and contractility of single cardiomyocytes.
# The contractility of cardiomyocytes was measured as the percent of length shortening (fractional shortening; % FS). […]
# [2] = test system: phospho (Ser 22-23) cardiac troponin I (cTnl); experiment: Phospho (Ser 22-23) cTnl western blot in cardiomyocytes; format: cell-based, mouse; conditions: SHAM cardiomyocytes; 1 μM; western blot normalized to total cTnl
# Method: AC01/HM01 was suspended in phosphate buffer saline solution (PBS: in mM: NaCl 137, KCl 7, Na2HPO4 10, KH2PO4 […]) and diluted to obtain 3 different concentrations: 0.2, 0.5 or 1 μM in Tyrode solution. We used a concentration range within 0.2-1 μM to ensure that the receptor was activated. […] Prior to contractility and Ca^2+ signaling measurements and biochemical assays, cardiomyocyte suspensions from SHAM and HF hearts were randomized to 3 types of treatments: vehicle, AC01/HM01, or D-Lys3-GHPR-6+AC01/HM01. The treatment with different agents occurred for 15 minutes at room temperature. Some cell suspension aliquots were flash frozen in liquid N2 and stored at −80° C. for later biochemistry analyses. All the experiments were conducted blinded regarding the treatment of cardiomyocytes.
# Aliquots of frozen cardiomyocyte suspensions were lysed using NP40 buffer (Thermo Fisher FNN0021, Stockholm, Sweden) supplemented with phosphatase inhibitors (Sigma-Aldrich P2850-1ML, P5726-1ML, Stockholm, Sweden). Protein lysates were separated by electrophoresis and transferred onto membranes. Membranes were incubated with primary antibody: rabbit anti phospho (Ser 22-23) cardiac troponin I (cTnl, Cell Signalling, Leiden, The Netherlands #4004S) and rabbit anti-cTnl (Cell Signalling #4002S, Leiden, The Netherlands). Thereafter, infrared-labelled secondary antibodies (IRDye 680 and IRDye 800, 1:5000, Licor) were used. Immunoreactive bands were analyzed using the Odyssey Infrared Imaging System (Li-Cor, Bad Homburg, Germany). Band densities were quantified with Image J (NIH, Bethesda, USA), normalized to total cTnl and final data was expressed as fold increase compared to bands representing protein extracted from vehicle treated cells.
# [3] = Phase 1 single ascending dose study, urinary excretion; format: in vivo, human; conditions: 10 mg dose; urine collected 24 hours
# Method: Blood samples for analytical assay of HM01 and the 3 major metabolites (M2, M6 and M9) were collected at pre-dose (within 60 minutes prior to drug administration), and at 0.25, 0.5, 1, 1.5, 2, 3, 4, 6, 8, 12, 16, 24, 30, 36, 48, 60 and 72 hours post dose (18 samples). Urine was collected for 24 hours after dosing. Blood and urine samples were analyzed for HM01 and its metabolites concentrations using validated LC-MS/MS methods.
# Additional parameters were derived from urine, i.e., Ae(0-24), the amount of the parent drug and metabolites excreted in 24 h, and CLR, the renal clearance.
# [4] = test system: growth hormone (GH); experiment: Phase 1 SAD pharmacodynamics, serum GH (ELISA); format: in vivo, human
# Method: (§1) Blood samples for determination of growth hormone (GH), insulin-like growth factor-1 (IGF-1), adrenocorticotropic hormone (ACTH), prolactin, cortisol and aldosterone in serum at pre-dose and 0.5, 1, 2, 3, 4, 6 and 24 hours post-dose were collected by venous puncture. All biomarkers were determined using enzyme linked immunosorbent assays (ELISA). Simplified nutritional appetite questionnaire based on appetite assessments at Day −1 after dinner, and on Day 1 pre-dose, 1, 2, 4, 8, and 24 hours after dosing. Stool diary starting on Day 1 until discharge on Day 4.
# [5] = test system: insulin-like growth factor-1 (IGF-1); experiment: Phase 1 SAD pharmacodynamics, serum IGF-1 (ELISA); format: in vivo, human; conditions: 0.1-10 mg
# Method: as §1
# [6] = test system: adrenocorticotropic hormone (ACTH); experiment: Phase 1 SAD pharmacodynamics, serum ACTH (ELISA); format: in vivo, human; conditions: higher doses; ACTH determined only after 1.0 mg
# Method: as §1
# [7] = test system: cortisol; experiment: Phase 1 SAD pharmacodynamics, serum cortisol (ELISA); format: in vivo, human
# Method: as §1
# [8] = test system: aldosterone; experiment: Phase 1 SAD pharmacodynamics, serum aldosterone (ELISA); format: in vivo, human
# Method: as §1
# [9] = Phase 1 SAD, simplified nutritional appetite questionnaire; format: in vivo, human; conditions: 0.1-10 mg
# Method: as §1
# [10] = Phase 1 SAD, stool diary; format: in vivo, human; conditions: between dose groups
# Method: as §1
smiles,measurement,setting,value
"COc1ccc([C@H](C)NC(=O)N(C)[C@@H]2CCN(C)CC2(C)C)c(Cl)c1Cl.Cl [AC01/HM01, 1-[(1S)-1-(2,3-dichloro-4-methoxyphenyl)ethyl]-3-methyl-3-[(4R)-1-methyl-3,3-dimethyl-4-piperidyl]-urea]","contractility, fractional shortening (FS %) vs vehicle",[1],significant increase of contractility; also recorded: positively responded
same,phosphorylation of cTnl (Serine 22-23) vs vehicle,[2],decreased phosphorylation levels; also recorded: reduced the levels of phosphorylation
same,fraction of the dose excreted in the urine,[3],Approximately 10%
same,GH increase,[4]; 0.3 and 0.1 mg HM01,lower increases
same,GH increase,[4]; 1.0 and 10 mg HM01,higher
same,"mean GH curves, comparison of doses",[4]; 1.0 vs 10 mg HM01,similar
same,time of peak GH concentrations,[4]; after single oral administration,2-3 hours post-dose
same,concentrations of GH vs baseline,"[4]; after single oral administration, healthy males",increased from baseline
same,"IGF-1 serum levels, dose groups vs placebo",[5],No relevant differences
same,concentrations of ACTH,[6],rapidly increased above baseline values
same,concentrations of cortisol,[7]; 1.0 and 10 mg HM01,rapidly increased above baseline values
same,"cortisol increase, comparison of doses",[7]; 1.0 vs 10 mg,similar
same,concentrations of aldosterone,[8]; 1.0 and 10 mg HM01,rapidly increased above baseline values
same,"aldosterone increase, comparison of doses",[8]; 1.0 vs 10 mg,similar
same,"appetite questionnaire, dose groups vs placebo",[9],no relevant or consistent differences
same,number of bowel movements per day and number of subjects with bowel movement,[10],no dose-related differences
